Tests used:
[1] = system: recombinant human anti-SARS-CoV antibody 03-018; format: binding; design: Binding of antibody 03-018 to linear peptides of the N protein of SARS-CoV Urbani / Binding of antibody 03-018 to looped/cyclic peptides of the N protein of SARS-CoV Urbani: unit not given here
[2] = system: antibodies in sera from SARS patients (sera 1a, 1b, 2, 6, 37, 62, London, SARS-yellow, SARS-green); format: binding, human; design: Binding of serum 6 to linear peptides of protein X1 of SARS-CoV Urbani / Binding of serum 37 to linear peptides of protein X1 of SARS-CoV Urbani / Binding of serum 6 to looped/cyclic peptide (PEPSCAN-ELISA) / Binding of serum 37 to looped/cyclic peptide (PEPSCAN-ELISA) / Binding of serum 37 to looped/cyclic peptides of protein X1 of SARS-CoV Urbani / Binding of serum 6 to linear peptides of protein X2 / Binding of serum 37 to linear peptides of protein X2 / Binding of serum 37 to looped/cyclic peptides of protein X2 of SARS-CoV Urbani / Binding of serum 6 to linear peptides of protein M of SARS-CoV Urbani / Binding of serum 37 to linear peptides of protein M of SARS-CoV Urbani / Binding of serum 6 to looped/cyclic peptides of protein M of SARS-CoV Urbani / Binding of serum 37 to looped/cyclic peptides of protein M of SARS-CoV Urbani / Binding of serum 6 to linear peptides of protein X3 of SARS-CoV Urbani / Binding of serum 37 to linear peptides of protein X3 of SARS-CoV Urbani / Binding of serum 37 to looped/cyclic peptides of protein X3 of SARS-CoV Urbani / Binding of serum 6 to linear peptides of protein X4 of SARS-CoV Urbani / Binding of serum 37 to linear peptides of protein X4 of SARS-CoV Urbani / Binding of serum 37 to looped/cyclic peptides of protein X4 of SARS-CoV Urbani / Binding of serum 6 to linear peptides of protein X5 of SARS-CoV Urbani / Binding of serum 37 to linear peptides of protein X5 of SARS-CoV Urbani / Binding of serum 37 to looped/cyclic peptides of protein X5 of SARS-CoV Urbani / Binding of serum 6 to linear peptides of protein N of SARS-CoV Urbani / Binding of serum 37 to linear peptides of protein N of SARS-CoV Urbani / Binding of serum 6 to linear peptide (PEPSCAN-ELISA) / Binding of serum 1a to looped/cyclic peptides of protein N of SARS-CoV Urbani / Binding of serum 1b to looped/cyclic peptides of protein N of SARS-CoV Urbani / Binding of serum 2 to looped/cyclic peptides of protein N of SARS-CoV Urbani / Binding of serum 6 to looped/cyclic peptides of protein N of SARS-CoV Urbani / Binding of serum 37 to looped/cyclic peptides of protein N of SARS-CoV Urbani / Binding of serum 62 to looped/cyclic peptides of protein N of SARS-CoV Urbani / Binding of serum London to looped/cyclic peptides of protein N of SARS-CoV Urbani / Binding of serum SARS-green to looped/cyclic peptides of protein N of SARS-CoV Urbani: unit not given here
[3] = system: rabbit serum obtained by immunizing a rabbit with the SARS-CoV strain Frankfurt 1; format: binding; design: Binding of a rabbit serum to linear peptides / Binding of a rabbit serum to looped peptides / Rabbit serum linear peptides / Rabbit serum looped peptides / Binding of a rabbit serum to linear peptides of protein N of SARS-CoV Urbani (Rabbit serum linear peptides) / Binding of a rabbit serum to looped/cyclic peptides of protein N of SARS-CoV Urbani (Rabbit serum looped peptides): unit not given here
[4] = system: control sera (pooled serum of ten healthy LUMC hospital workers; commercial negative donor pooled serum from the Dutch bloodbank); format: binding, human; design: Binding of Control serum LUMC to linear peptides / Binding of Control serum Blood-bank to linear peptides / Binding of Control serum LUMC to looped peptides / Binding of Control Serum Blood-Bank to Looped peptides / Binding of Control serum LUMC to linear peptides of the protein M of SARS-CoV Urbani / Binding of Control serum Blood-bank to linear peptides of the protein M of SARS-CoV Urbani / Binding of Control serum LUMC to looped peptides of the protein M of SARS-CoV Urbani / Binding of Control Serum Blood-Bank to Looped peptides of the protein M of SARS-CoV Urbani: unit not given here

Row | Sequence | Binding of antibody 03-018 to linear peptides of the N protein of SARS-CoV Urbani [1] | Binding of antibody 03-018 to looped/cyclic peptides of the N protein of SARS-CoV Urbani [1] | Binding of serum 1a to linear peptide (PEPSCAN-ELISA) [2] | Binding of serum 1a to looped/cyclic peptides of protein N of SARS-CoV Urbani [2] | Binding of serum 1b to linear peptide (PEPSCAN-ELISA) [2] | Binding of serum 1b to looped/cyclic peptides of protein N of SARS-CoV Urbani [2] | Binding of serum 2 to linear peptide (PEPSCAN-ELISA) [2] | Binding of serum 2 to looped/cyclic peptides of protein N of SARS-CoV Urbani [2] | Binding of serum 6 to looped/cyclic peptides of protein N of SARS-CoV Urbani [2] | Binding of serum 37 to looped/cyclic peptides of protein N of SARS-CoV Urbani [2] | Binding of serum 62 to looped/cyclic peptides of protein N of SARS-CoV Urbani [2] | Binding of serum London to looped/cyclic peptides of protein N of SARS-CoV Urbani [2] | Binding of serum SARS-green to looped/cyclic peptides of protein N of SARS-CoV Urbani [2] | Binding of serum SARS-yellow to looped/cyclic peptides of protein N of SARS-CoV Urbani [2] | Binding of a rabbit serum to linear peptides of protein N of SARS-CoV Urbani (Rabbit serum linear peptides) [3] | Binding of a rabbit serum to looped/cyclic peptides of protein N of SARS-CoV Urbani (Rabbit serum looped peptides) [3] | Binding of Control Serum Blood-Bank to Looped peptides [4] | Binding of Control serum Blood-bank to linear peptides [4] | Binding of Control serum LUMC to linear peptides [4] | Binding of Control serum LUMC to looped peptides [4] | also measured
1 | AEASKKPRQKRTATK | 0.1 | 0.2 | 0.2 | 0.2 | 0.1 | 0.1 | 0.2 | 0.2 | 0.1 | 0.4 | 0.3 | 0.3 | 0.1 | 0.2 | 0.2 | 0.1 | 0.4 | 0.8 | 0.8 | 0.4 | Binding of serum 6 to linear peptide (PEPSCAN-ELISA) [2]: 0.3; Binding of serum 37 to linear peptide (PEPSCAN-ELISA) [2]: 0.7; Binding of serum 62 to linear peptide (PEPSCAN-ELISA) [2]: 0.7; Binding of serum London to linear peptide (PEPSCAN-ELISA) [2]: 0.4; Binding of serum SARS-green to linear peptide (PEPSCAN-ELISA) [2]: 0.4; Binding of serum SARS-yellow to linear peptide (PEPSCAN-ELISA) [2]: 0.7
2 | RGQGVPINTNSGPDD | 0.1 | 0.2 |  | 0.2 |  | 0.1 |  | 0.2 | 0.1 | 0.3 | 0.2 | 0.2 | 0.2 | 0.0 | 0.1 | 0.0 | 0.4 | 0.5 | 0.5 | 0.4 | Binding of serum 1a to linear peptides of protein N of SARS-CoV Urbani [2]: 0.2; Binding of serum 1b to linear peptides of protein N of SARS-CoV Urbani [2]: 0.1; Binding of serum 2 to linear peptides of protein N of SARS-CoV Urbani [2]: 0.1; Binding of serum 6 to linear peptides of protein N of SARS-CoV Urbani [2]: 0.1; Binding of serum 37 to linear peptides of protein N of SARS-CoV Urbani [2]: 0.3; Binding of serum 62 to linear peptides of protein N of SARS-CoV Urbani [2]: 0.4; Binding of serum London to linear peptides of protein N of SARS-CoV Urbani [2]: 0.4; Binding of serum SARS-green to linear peptides of protein N of SARS-CoV Urbani [2]: 0.4; Binding of serum SARS-yellow to linear peptides of protein N of SARS-CoV Urbani [2]: 0.6
3 | GGSQASSRSSSRSRG | 0.1 | 0.2 | 0.3 | 0.3 | 0.1 | 0.2 | 0.3 | 0.4 | 0.4 | 0.5 | 0.4 | 0.4 | 0.0 | 0.3 | 0.2 | 0.5 | 0.6 | 0.7 | 0.8 | 0.6 | Binding of serum 6 to linear peptide (PEPSCAN-ELISA) [2]: 0.4; Binding of serum 37 to linear peptide (PEPSCAN-ELISA) [2]: 0.7; Binding of serum 62 to linear peptide (PEPSCAN-ELISA) [2]: 0.7; Binding of serum London to linear peptide (PEPSCAN-ELISA) [2]: 0.5; Binding of serum SARS-green to linear peptide (PEPSCAN-ELISA) [2]: 0.7; Binding of serum SARS-yellow to linear peptide (PEPSCAN-ELISA) [2]: 0.9
4 | PTDSTDNNQNGGRNG | 0.1 | 0.2 |  | 0.3 |  | 0.2 |  | 0.3 | 0.2 | 0.5 | 0.3 | 0.4 | 0.4 | 0.5 | 0.1 | 0.1 | 0.5 | 1.0 | 0.8 | 0.4 | Binding of serum 1a to linear peptides of protein N of SARS-CoV Urbani [2]: 0.3; Binding of serum 1b to linear peptides of protein N of SARS-CoV Urbani [2]: 0.2; Binding of serum 2 to linear peptides of protein N of SARS-CoV Urbani [2]: 0.3; Binding of serum 6 to linear peptides of protein N of SARS-CoV Urbani [2]: 0.2; Binding of serum 37 to linear peptides of protein N of SARS-CoV Urbani [2]: 1.2; Binding of serum 62 to linear peptides of protein N of SARS-CoV Urbani [2]: 0.8; Binding of serum London to linear peptides of protein N of SARS-CoV Urbani [2]: 0.7; Binding of serum SARS-green to linear peptides of protein N of SARS-CoV Urbani [2]: 0.6; Binding of serum SARS-yellow to linear peptides of protein N of SARS-CoV Urbani [2]: 0.7

Source: patent US20070128217A1 (priority 2003, published 2007)
